Consider 23 compounds from patent US8354436B2 (4SC Discovery GmbH, priority 2011, dated 2013).

Where two headings read alike, the source gives them in different places. Some results are limits rather than exact numbers.

What all share (assay type): cell-based
What all share (details): 48 hours

One experiment relates to IL-17FF. Description: IL-17FF production by PHA-stimulated human PBMC (human IL-17F ELI-Pair). The procedure, abridged:
(§1)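 PBMC from healthy donors, 1×10^5/well, 2 μg/ml PHA + compound, 48 h. Supernatant cytokine by Luminex bead assay or ELISA as listed. Screen at 10/1/0.1/0.01 μM; IC50 via semilog titration.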

In the next experiment the test system is IFN-γ. As to the kind of experiment: IFN-γ production by PHA-stimulated human PBMC (OptEIA human IFN-g ELISA). In outline:
as §1

Experiment [1] relates to PBMC from healthy human donors. As to the kind of experiment: T cell proliferation assay (PHA-stimulated human PBMC, BrdU ELISA). In outline: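 Healthy-donor PBMC isolated on Ficoll, seeded at 1×10⁵ cells/well in RPMI with 10% dialysed FCS, stimulated with 2 μg/ml PHA in presence of test compound. Proliferation read after 48 hours by BrdU-incorporation ELISA.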
Background: Incorporation of labelled thymidine or its analogues reports DNA synthesis.

Setting [2] is: PHA-stimulated human PBMC, column B, read-out: IC50 (IL-17FF).
Setting [3] is: PHA-stimulated human PBMC, column C, read-out: IC50 (IFNγ).
[4] abbreviates: PHA-stimulated human PBMC, column D, read-out: IC50 (Tcell proliferation).
The mark [5] stands for this setting: human PBMC, 2 μg/ml PHA, read-out: B: IC50 (IL-17FF).
[6] abbreviates: human PBMC, 2 μg/ml PHA, read-out: C: IC50 (IFNγ).
Where [7] appears, read: human PBMC, 2 μg/ml PHA, read-out: D: IC50 (Tcell proliferation).

For the compound `CON(C)C(=O)c1c(-c2c(F)cccc2Cl)noc1-c1cnn(-c2ccccc2F)c1C(F)(F)F` [IB-53, 3-(2-chloro-6-fluorophenyl)-5-(1-(2-fluorophenyl)-5-(trifluoromethyl)-1H-pyrazol-4-yl)-N-methoxy-N-methylisoxazole-4-carboxamide], the IC50 (in the experiment on IL-17FF (setting [2]); with IFN-γ (setting [3]); in experiment [1] (setting [4])) was 0.1 to 1 µM in each case.

In the case of `CCOC(=O)c1c(-c2ccccc2Cl)noc1-c1cnn(-c2cccc(Cl)c2)c1C(F)(F)F` [IB-41, ethyl 3-(2-chlorophenyl)-5-(1-(3-chlorophenyl)-5-(trifluoromethyl)-1H-pyrazol-4-yl)-isoxazole-4-carboxylate], the IC50 was under 0.01 µM in the experiment on IL-17FF (setting [2]), under 0.01 µM with IFN-γ (setting [3]) and 0.01 to 0.1 µM in experiment [1] (setting [4]).

Regarding `Fc1ccc(-n2ncc(-c3onc(-c4c(F)cccc4Cl)c3Br)c2C(F)(F)F)cc1` [IB-28, 4-bromo-3-(2-chloro-6-fluorophenyl)-5-(1-(4-fluorophenyl)-5-(trifluoromethyl)-1H-pyrazol-4-yl)isoxazole], the IC50 (in the experiment with IL-17FF (setting [2]); in the experiment on IFN-γ (setting [3]); in experiment [1] (setting [4])) was 0.1 to 1 µM in each case.

`Fc1cccc(Cl)c1-c1noc(-c2cnn(-c3cccc(Cl)c3)c2C(F)(F)F)c1-c1ccoc1` [Example B-7, 3-(2-chloro-6-fluorophenyl)-5-(1-(3-chlorophenyl)-5-(trifluoromethyl)-1H-pyrazol-4-yl)-4-(furan-3-yl)isoxazole]: the IC50 (in the experiment with IL-17FF (setting [5]); in the experiment with IFN-γ (setting [6]); in experiment [1] (setting [7])) was under 0.01 µM in each case.

`Fc1ccc(-n2ncc(-c3onc(-c4c(F)cccc4Cl)c3Br)c2C(F)(F)F)c(F)c1` [IB-24, 4-bromo-3-(2-chloro-6-fluorophenyl)-5-(1-(2,4-difluorophenyl)-5-(trifluoromethyl)-1H-pyrazol-4-yl)isoxazole]: the IC50 (with IL-17FF (setting [2]); with IFN-γ (setting [3]); in experiment [1] (setting [4])) was 1 to 10 µM throughout.

For `CCOC(=O)c1c(-c2ccc(Cl)cc2Cl)noc1-c1cnn(-c2cccc(Cl)c2)c1C(F)(F)F` [IB-46, ethyl 5-(1-(3-chlorophenyl)-5-(trifluoromethyl)-1H-pyrazol-4-yl)-3-(2,4-dichlorophenyl)-isoxazole-4-carboxylate], the IC50 (with IL-17FF (setting [2]); with IFN-γ (setting [3]); in experiment [1] (setting [4])) was 0.1 to 1 µM each time.

As to `CC(C)OC(=O)c1c(-c2c(F)cccc2Cl)noc1-c1cnn(-c2cccc(Cl)c2)c1C(F)(F)F` [IB-31, isopropyl 3-(2-chloro-6-fluorophenyl)-5-(1-(3-chlorophenyl)-5-(trifluoromethyl)-1H-pyrazol-4-yl)isoxazole-4-carboxylate], the IC50 (with IL-17FF (setting [2]); in the experiment with IFN-γ (setting [3]); in experiment [1] (setting [4])) was under 0.01 µM each time.

Regarding `COC(=O)c1c(-c2ccccc2F)noc1-c1cnn(-c2cccc(Cl)c2)c1C(F)(F)F` [IB-77, methyl 5-(1-(3-chlorophenyl)-5-(trifluoromethyl)-1H-pyrazol-4-yl)-3-(2-fluorophenyl)isoxazole-4-carboxylate], the IC50 (in the experiment on IL-17FF (setting [2]); in the experiment with IFN-γ (setting [3]); in experiment [1] (setting [4])) was 0.01 to 0.1 µM each time.

With `COC(=O)c1c(-c2ccc(Cl)cc2Cl)noc1-c1cnn(-c2cccc(Cl)c2)c1C(F)(F)F` [IB-76, methyl 5-(1-(3-chlorophenyl)-5-(trifluoromethyl)-1H-pyrazol-4-yl)-3-(2,4-dichlorophenyl)isoxazole-4-carboxylate], the IC50 is 0.01 to 0.1 µM in the experiment with IL-17FF (setting [2]), 0.1 to 1 µM in the experiment with IFN-γ (setting [3]) and 0.1 to 1 µM in experiment [1] (setting [4]).

Take `Fc1cccc(Cl)c1-c1noc(-c2cnn(-c3ccccc3Cl)c2C(F)(F)F)c1-c1nccs1` [Example B-29, 3-(2-chloro-6-fluorophenyl)-5-(1-(2-chlorophenyl)-5-(trifluoromethyl)-1H-pyrazol-4-yl)-4-(thiazol-2-yl)isoxazole]: the IC50 with IL-17FF (setting [5]) is 1 to 10 µM; in the experiment with IFN-γ (setting [6]), 0.1 to 1 µM; in experiment [1] (setting [7]), 1 to 10 µM.

As for `COC(=O)c1c(-c2c(F)cccc2Cl)noc1-c1cnn(-c2c(Cl)cccc2Cl)c1C(F)(F)F` [Example I-70, methyl 3-(2-chloro-6-fluorophenyl)-5-(1-(2,6-dichlorophenyl)-5-(trifluoromethyl)-1H-pyrazol-4-yl)isoxazole-4-carboxylate], the IC50 (in the experiment on IL-17FF (setting [2]); in the experiment with IFN-γ (setting [3]); in experiment [1] (setting [4])) was 0.1 to 1 µM throughout.

Consider `CCOC(=O)c1c(-c2c(F)cccc2Cl)noc1-c1cnn(CC2CCOCC2)c1C(F)(F)F` [IB-81, ethyl 3-(2-chloro-6-fluorophenyl)-5-(1-((tetrahydro-2H-pyran-4-yl)methyl)-5-(trifluoromethyl)-1H-pyrazol-4-yl)isoxazole-4-carboxylate], for which the IC50 (with IL-17FF (setting [2]); in the experiment on IFN-γ (setting [3]); in experiment [1] (setting [4])) was 0.1 to 1 µM in each case.

For the compound `O=C(c1c(-c2c(F)cccc2Cl)noc1-c1cnn(-c2ccccc2F)c1C(F)(F)F)N1CCOCC1` [Example I-16, (3-(2-chloro-6-fluorophenyl)-5-(1-(2-fluorophenyl)-5-(trifluoromethyl)-1H-pyrazol-4-yl)isoxazol-4-yl)(morpholino)methanone], the figures for the IC50 (in the experiment with IL-17FF (setting [2]); in the experiment on IFN-γ (setting [3]); in experiment [1] (setting [4])) were 0.1 to 1 µM, 0.1 to 1 µM and 1 to 10 µM, respectively.

As for `Fc1cccc(Cl)c1-c1noc(-c2cnn(-c3ccccn3)c2C(F)(F)F)c1-c1nnco1` [Example B-25, 2-(3-(2-chloro-6-fluorophenyl)-5-(1-(pyridin-2-yl)-5-(trifluoromethyl)-1H-pyrazol-4-yl)isoxazol-4-yl)-1,3,4-oxadiazole], the IC50 with IL-17FF (setting [5]) lay within 0.1 to 1 µM; with IFN-γ (setting [6]), 0.01 to 0.1 µM; in experiment [1] (setting [7]), 0.01 to 0.1 µM.

As to `CC(C)OC(=O)c1c(-c2c(F)cccc2Cl)noc1-c1cnn(-c2ccncc2)c1C(F)(F)F` [IB-82, isopropyl 3-(2-chloro-6-fluorophenyl)-5-(1-(pyridin-4-yl)-5-(trifluoromethyl)-1H-pyrazol-4-yl)isoxazole-4-carboxylate], the IC50 (with IL-17FF (setting [2]); in the experiment with IFN-γ (setting [3]); in experiment [1] (setting [4])) was 0.01 to 0.1 µM each time.

With `COC(=O)c1c(-c2c(F)cccc2Cl)noc1-c1cnn(-c2ccc(S(C)(=O)=O)cc2)c1C(F)(F)F` [Example I-85, methyl 3-(2-chloro-6-fluorophenyl)-5-(1-(4-(methylsulfonyl)phenyl)-5-(trifluoromethyl)-1H-pyrazol-4-yl)isoxazole-4-carboxylate], the IC50 (with IL-17FF (setting [2]); in the experiment with IFN-γ (setting [3]); in experiment [1] (setting [4])) was 1 to 10 µM each time.

Regarding `CNC(=O)c1c(-c2c(F)cccc2Cl)noc1-c1cnn(-c2cccnc2)c1C(F)(F)F` [IB-55, 3-(2-chloro-6-fluorophenyl)-N-methyl-5-(1-(pyridin-3-yl)-5-(trifluoromethyl)-1H-pyrazol-4-yl)isoxazole-4-carboxamide], the IC50 (in the experiment with IL-17FF (setting [2]); with IFN-γ (setting [3]); in experiment [1] (setting [4])) was 1 to 10 µM in each case.

For `COC(=O)c1c(-c2c(F)cccc2Cl)noc1-c1cnn(-c2c(F)c(F)cc(F)c2F)c1C(F)(F)F` [Example I-47, methyl 3-(2-chloro-6-fluorophenyl)-5-(1-(2,3,5,6-tetrafluorophenyl)-5-(trifluoromethyl)-1H-pyrazol-4-yl)isoxale-4-carboxylate], the IC50 (in the experiment on IL-17FF (setting [2]); with IFN-γ (setting [3]); in experiment [1] (setting [4])) was 0.1 to 1 µM each time.

With `Fc1cccc(Cl)c1-c1noc(-c2cnn(-c3cccc(Cl)c3)c2C(F)(F)F)c1-c1ccco1` [Example B-6, 3-(2-chloro-6-fluorophenyl)-5-(1-(3-chlorophenyl)-5-(trifluoromethyl)-1H-pyrazol-4-yl)-4-(furan-2-yl)isoxazole], the IC50 (in the experiment on IL-17FF (setting [5]); in the experiment with IFN-γ (setting [6]); in experiment [1] (setting [7])) was under 0.01 µM throughout.

`CCOC(=O)c1c(-c2c(F)cccc2Cl)noc1-c1cnn(-c2ccccc2F)c1C(F)(F)F` [Example I-42, Ethyl 3-(2-chloro-6-fluorophenyl)-5-[1-(2-fluorophenyl)-5-(trifluoromethyl)-1H-pyrazol-4-yl]isoxazole-4-carboxylate]: the values for the IC50 (in the experiment with IL-17FF (setting [2]); in the experiment with IFN-γ (setting [3]); in experiment [1] (setting [4])) were 0.01 to 0.1 µM, under 0.01 µM and 0.01 to 0.1 µM, respectively.

Regarding `Fc1cccc(-n2ncc(-c3onc(-c4c(F)cccc4Cl)c3-c3nnn[nH]3)c2C(F)(F)F)c1` [Example 2, 3-(2-chloro-6-fluorophenyl)-5-(1-(3-fluorophenyl)-5-(trifluoromethyl)-1H-pyrazol-4-yl)-4-(1H-tetrazol-5-yl)isoxazole], the IC50 (in the experiment with IL-17FF (setting [5]); in the experiment with IFN-γ (setting [6]); in experiment [1] (setting [7])) was 1 to 10 µM each time.

Turning to `Cc1nnc(-c2c(-c3c(F)cccc3Cl)noc2-c2cnn(-c3cccc(S(N)(=O)=O)c3)c2C(F)(F)F)s1` [Example B-23, 3-(4-(3-(2-chloro-6-fluorophenyl)-4-(5-methyl-1,3,4-thiadiazol-2-yl)isoxazol-5-yl)-5-(trifluoromethyl)-1H-pyrazol-1-yl)benzenesulfonamide], the IC50 (in the experiment with IL-17FF (setting [5]); with IFN-γ (setting [6]); in experiment [1] (setting [7])) was 1 to 10 µM each time.

Consider `CON(C)C(=O)c1c(-c2c(F)cccc2Cl)noc1-c1cnn(-c2ccccc2Cl)c1C(F)(F)F` [IB-51, 3-(2-chloro-6-fluorophenyl)-5-(1-(2-chlorophenyl)-5-(trifluoromethyl)-1H-pyrazol-4-yl)-N-methoxy-N-methylisoxazole-4-carboxamide], for which the IC50 (with IL-17FF (setting [2]); in the experiment on IFN-γ (setting [3]); in experiment [1] (setting [4])) was 1 to 10 µM throughout.
